The source of these data is US20120028888A1, “APJ RECEPTOR COMPOUNDS” (priority 2008, published 2012).

Residues, ends and D or L forms follow the SMILES beside them. *: point of attachment. Palmitoyl = CCCCCCCCCCCCCCCC(=O)*

The target of this assay is T1, Gi-coupled receptor APJ (HEK cells stably expressing the APJ receptor) (Homo sapiens, UniProt P35414).
T1 construct: expressed in transfected cells; host or cells: HEK cells stably expressing APJ
T1 sequence (P35414 1-380): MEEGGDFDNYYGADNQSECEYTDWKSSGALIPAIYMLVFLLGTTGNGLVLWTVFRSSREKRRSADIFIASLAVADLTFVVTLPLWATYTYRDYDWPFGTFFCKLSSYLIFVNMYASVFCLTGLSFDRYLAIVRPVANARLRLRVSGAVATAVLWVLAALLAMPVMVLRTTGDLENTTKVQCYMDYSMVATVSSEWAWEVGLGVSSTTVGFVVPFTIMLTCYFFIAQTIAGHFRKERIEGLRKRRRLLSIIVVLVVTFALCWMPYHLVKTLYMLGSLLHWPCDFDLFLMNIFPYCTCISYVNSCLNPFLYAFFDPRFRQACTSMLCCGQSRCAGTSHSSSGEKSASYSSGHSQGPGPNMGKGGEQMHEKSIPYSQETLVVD
As to the kind of experiment: HTRF cAMP assay: inhibition of NKH477 stimulated increase in cAMP. Type of assay: cell-based. Conditions: read-out: EC50 value (nM), SEM. The source says:
HTRF (homogeneous time resolved fluorescence) is a technology developed by Cisbio Bioassays based on TR-FRET (time-resolved fluorescence resonance energy transfer). Cisbio Bioassays has developed a wide selection of HTRF-based assays compatible with whole cells, thereby enabling functional assays to run under more physiological conditions. The IP-One assays are competitive immunoassays using cryptate-labeled anti-IPI monoclonal antibody and d2-labeled IP1. IP1 is a relatively stable downstream metabolite of IP3, and accumulates in cells following Gq receptor activation.
cAMP kits based on a competitive immunoassay using cryptate-labeled anti-cAMP antibody and d2-labeled cAMP were used to assay the effects of APJ compounds of the present invention. This assay measures the increase in intracellular cAMP upon Gs-coupled receptor activation as well as decrease in forskolin (or a more soluble version of forskolin—NKH477) stimulated increase in cAMP upon Gi-coupled receptor activation.
On the technique in general: TR-FRET usually uses a lanthanide donor and a delayed reading to cut background.
Broadly, the EC50 is the concentration at which the effect is half-maximal. For the compound `CCCCCCCCCCCCCCCC(=O)N[C@@H](Cc1ccccc1)C(=O)N[C@@H](CCCNC(=N)N)C(=O)N[C@@H](CO)C(=O)N[C@@H](CO)C(=O)N[C@@H](CCCNC(=N)N)C(=O)N[C@@H](CCC(=O)O)C(=O)N[C@@H](CCCCN)C(=O)N[C@@H](CCCNC(=N)N)C(=O)N[C@@H](CCCNC(=N)N)C(=O)N[C@@H](CO)C(=O)N[C@@H](C)C(=O)N[C@@H](CC(=O)O)C(=O)N[C@H](C(=O)N[C@@H](Cc1ccccc1)C(=O)N[C@H](C(N)=O)[C@@H](C)CC)[C@@H](C)CC` [Compound 11] (Palmitoyl-FRSSREKRRSADIFI-NH2), the EC50 was in the range of 1 to 500 nM.

As for `CCCCCCCCCCCCCCCC(=O)N[C@H](C(=O)N[C@@H](C)C(=O)N[C@@H](Cc1ccccc1)C(=O)N[C@@H](CCCNC(=N)N)C(=O)N[C@@H](CO)C(=O)N[C@@H](CO)C(=O)N[C@@H](CCCNC(=N)N)C(=O)N[C@@H](CCC(=O)O)C(=O)N[C@@H](CCCCN)C(=O)N[C@@H](CCCNC(=N)N)C(=O)N[C@@H](CCCNC(=N)N)C(=O)N[C@@H](CO)C(=O)N[C@@H](C)C(=O)N[C@@H](CC(=O)O)C(=O)N[C@H](C(=O)N[C@@H](Cc1ccccc1)C(=O)N[C@H](C(N)=O)[C@@H](C)CC)[C@@H](C)CC)[C@@H](C)O` [Compound 22] (Palmitoyl-TAFRSSREKRRSADIFI-NH2), the EC50 was in the range of 1 to 500 nM.

Regarding `CCCCCCCCCCCCCCCC(=O)N[C@H](C(=O)N[C@H](C(=O)N[C@@H](Cc1ccccc1)C(=O)N[C@@H](C)C(=O)N[C@@H](CO)C(=O)N[C@@H](CO)C(=O)N[C@@H](CCCNC(=N)N)C(=O)N[C@@H](CCC(=O)O)C(=O)N[C@@H](CCCCN)C(=O)N[C@@H](CCCNC(=N)N)C(=O)N[C@@H](CCCNC(=N)N)C(=O)N[C@@H](CO)C(=O)N[C@@H](C)C(=O)N[C@@H](CC(=O)O)C(=O)N[C@H](C(=O)N[C@@H](Cc1ccccc1)C(=O)N[C@H](C(N)=O)[C@@H](C)CC)[C@@H](C)CC)C(C)C)[C@@H](C)O` [Compound 24] (Palmitoyl-TVFASSREKRRSADIFI-NH2), the EC50 was in the range of 1000 to 5000 nM.

On to `CCCCCCCCCCCCCCCC(=O)N[C@H](C(=O)N[C@@H](CO)C(=O)N[C@@H](CO)C(=O)N[C@@H](CCCNC(=N)N)C(=O)N[C@@H](CCC(=O)O)C(=O)N[C@@H](CCCCN)C(=O)N[C@@H](CCCNC(=N)N)C(=O)N[C@@H](CCCNC(=N)N)C(=O)N[C@@H](CO)C(=O)N[C@@H](C)C(=O)N[C@@H](CC(=O)O)C(=O)N[C@H](C(=O)N[C@@H](Cc1ccccc1)C(=O)N[C@H](C(N)=O)[C@@H](C)CC)[C@@H](C)CC)C(C)C` [Compound 25] (Palmitoyl-VSSREKRRSADIFI-NH2), for which the EC50 lay in the range of 1000 to 5000 nM.

On to `CCCCCCCCCCCCCCCC(=O)N[C@H](C(=O)N[C@H](C(=O)N[C@@H](Cc1ccccc1)C(=O)N[C@@H](CCCNC(=N)N)C(=O)N[C@@H](C)C(=O)N[C@@H](CO)C(=O)N[C@@H](CCCNC(=N)N)C(=O)N[C@@H](CCC(=O)O)C(=O)N[C@@H](CCCCN)C(=O)N[C@@H](CCCNC(=N)N)C(=O)N[C@@H](CCCNC(=N)N)C(=O)N[C@@H](CO)C(=O)N[C@@H](C)C(=O)N[C@@H](CC(=O)O)C(=O)N[C@H](C(=O)N[C@@H](Cc1ccccc1)C(=O)N[C@H](C(N)=O)[C@@H](C)CC)[C@@H](C)CC)C(C)C)[C@@H](C)O` [Compound 27] (Palmitoyl-TVFRASREKRRSADIFI-NH2), for which the EC50 fell in the range of 501 to 1000 nM.

Turning to `CCCCCCCCCCCCCCCC(=O)N[C@H](C(=O)N[C@H](C(=O)N[C@@H](Cc1ccccc1)C(=O)N[C@@H](CCCNC(=N)N)C(=O)N[C@@H](CO)C(=O)N[C@@H](C)C(=O)N[C@@H](CCCNC(=N)N)C(=O)N[C@@H](CCC(=O)O)C(=O)N[C@@H](CCCCN)C(=O)N[C@@H](CCCNC(=N)N)C(=O)N[C@@H](CCCNC(=N)N)C(=O)N[C@@H](CO)C(=O)N[C@@H](C)C(=O)N[C@@H](CC(=O)O)C(=O)N[C@H](C(=O)N[C@@H](Cc1ccccc1)C(=O)N[C@H](C(N)=O)[C@@H](C)CC)[C@@H](C)CC)C(C)C)[C@@H](C)O` [Compound 28] (Palmitoyl-TVFRSAREKRRSADIFI-NH2), the EC50 is 1 to 500 nM.

With `CCCCCCCCCCCCCCCC(=O)N[C@H](C(=O)N[C@H](C(=O)N[C@@H](Cc1ccccc1)C(=O)N[C@@H](CCCNC(=N)N)C(=O)N[C@@H](CO)C(=O)N[C@@H](CO)C(=O)N[C@@H](CCCNC(=N)N)C(=O)N[C@@H](CCC(=O)O)C(=O)N[C@@H](CCCCN)C(=O)N[C@@H](CCCNC(=N)N)C(=O)N[C@@H](CCCNC(=N)N)C(=O)N[C@@H](C)C(=O)N[C@@H](C)C(=O)N[C@@H](CC(=O)O)C(=O)N[C@H](C(=O)N[C@@H](Cc1ccccc1)C(=O)N[C@H](C(N)=O)[C@@H](C)CC)[C@@H](C)CC)C(C)C)[C@@H](C)O` [Compound 32] (Palmitoyl-TVFRSSREKRRAADIFI-NH2), the EC50 lay within 1 to 500 nM.

For the compound `CCCCCCCCCCCCCCCC(=O)N[C@@H](CO)C(=O)N[C@@H](CO)C(=O)N[C@@H](CCCNC(=N)N)C(=O)N[C@@H](CCC(=O)O)C(=O)N[C@@H](CCCCN)C(=O)N[C@@H](CCCNC(=N)N)C(=O)N[C@@H](CCCNC(=N)N)C(=O)N[C@@H](CO)C(=O)N[C@@H](C)C(=O)N[C@@H](CC(=O)O)C(=O)N[C@H](C(=O)N[C@@H](Cc1ccccc1)C(=O)N[C@H](C(=O)N[C@@H](C)C(N)=O)[C@@H](C)CC)[C@@H](C)CC` [Compound 33] (Palmitoyl-SSREKRRSADIFIA-NH2), the concentration giving a half-maximal response (EC50) is above 10000 nM.

For `CCCCCCCCCCCCCCCC(=O)N[C@H](C(=O)N[C@H](C(=O)N[C@@H](Cc1ccccc1)C(=O)N[C@@H](Cc1c[nH]c2ccccc12)C(=O)N[C@@H](CO)C(=O)N[C@@H](CO)C(=O)N[C@@H](CCCNC(=N)N)C(=O)N[C@@H](CCC(=O)O)C(=O)N[C@@H](CCCCN)C(=O)N[C@@H](CCCNC(=N)N)C(=O)N[C@@H](CCCNC(=N)N)C(=O)N[C@@H](CO)C(=O)N[C@@H](C)C(=O)N[C@@H](CC(=O)O)C(=O)N[C@H](C(=O)N[C@@H](Cc1ccccc1)C(=O)N[C@H](C(N)=O)[C@@H](C)CC)[C@@H](C)CC)C(C)C)[C@@H](C)O` [Compound 36] (Palmitoyl-TVFWSSREKRRSADIFI-NH2), the EC50 was 1000 to 5000 nM.

Consider `CCCCCCCCCCCCCCCC(=O)N[C@H](C(=O)N[C@H](C(=O)N[C@@H](Cc1ccccc1)C(=O)N[C@@H](CCCNC(=N)N)C(=O)N[C@@H](CO)C(=O)N[C@@H](CO)C(=O)N[C@@H](CCCNC(=N)N)C(=O)N[C@@H](CCC(=O)O)C(=O)N[C@@H](CCCCN)C(=O)N[C@@H](CCCNC(=N)N)C(=O)N[C@@H](CCCNC(=N)N)C(=O)N[C@@H](CO)C(=O)N[C@@H](C)C(=O)N[C@@H](CC(=O)O)C(=O)N[C@H](C(=O)N[C@@H](C)C(=O)N[C@H](C(N)=O)[C@@H](C)CC)[C@@H](C)CC)C(C)C)[C@@H](C)O` [Compound 39] (Palmitoyl-TVFRSSREKRRSADIAI-NH2), for which the EC50 lay in the range of 1 to 500 nM.

Take `CCCCCCCCCCCCCCCC(=O)N[C@H](C(=O)N[C@H](C(=O)N[C@@H](Cc1ccccc1)C(=O)N[C@@H](CCCNC(=N)N)C(=O)N[C@@H](CO)C(=O)N[C@@H](CO)C(=O)N[C@@H](CCCNC(=N)N)C(=O)N[C@@H](CCC(=O)O)C(=O)N[C@@H](CCCCN)C(=O)N[C@@H](CCCNC(=N)N)C(=O)N[C@@H](CCCNC(=N)N)C(=O)N[C@@H](CO)C(=O)N[C@@H](C)C(=O)N[C@@H](CC(=O)O)C(=O)N[C@H](C(=O)N[C@@H](Cc1ccccc1)C(=O)N[C@@H](C)C(N)=O)[C@@H](C)CC)C(C)C)[C@@H](C)O` [Compound 40] (Palmitoyl-TVFRSSREKRRSADIFA-NH2): the EC50 was in the range of 501 to 1000 nM.

Regarding `CCCCCCCCCCCCCCCC(=O)N[C@H](C(=O)N[C@H](C(=O)N[C@@H](Cc1ccccc1)C(=O)N[C@@H](CCCNC(=N)N)C(=O)N[C@@H](CO)C(=O)N[C@@H](CO)C(=O)N[C@@H](CCCNC(=N)N)C(=O)N[C@@H](C)C(=O)N[C@@H](CCCCN)C(=O)N[C@@H](CCCNC(=N)N)C(=O)N[C@@H](CCCNC(=N)N)C(=O)N[C@@H](CO)C(=O)N[C@@H](C)C(=O)N[C@@H](CC(=O)O)C(=O)N[C@H](C(=O)N[C@@H](Cc1ccccc1)C(=O)N[C@H](C(N)=O)[C@@H](C)CC)[C@@H](C)CC)C(C)C)[C@@H](C)O` [Compound 41] (Palmitoyl-TVFRSSRAKRRSADIFI-NH2), the EC50 fell in the range of 1 to 500 nM.

In the case of `CCCCCCCCCCCCCCCC(=O)N[C@H](C(=O)N[C@H](C(=O)N[C@@H](Cc1ccccc1)C(=O)N[C@@H](CCCNC(=N)N)C(=O)N[C@@H](CO)C(=O)N[C@@H](CO)C(=O)N[C@@H](CCCNC(=N)N)C(=O)N[C@@H](CCC(=O)O)C(=O)N[C@@H](CCCCN)C(=O)N[C@@H](CCCNC(=N)N)C(=O)N[C@@H](CCCNC(=N)N)C(=O)N[C@@H](CO)C(=O)N[C@@H](C)C(=O)N[C@@H](CC(=O)O)C(=O)N[C@H](C(=O)N[C@@H](Cc1ccccc1)C(=O)N[C@H](C(=O)O)[C@@H](C)CC)[C@@H](C)CC)C(C)C)[C@@H](C)O` [Compound 42] (Palmitoyl-TVFRSSREKRRSADIFI-OH), the EC50 fell in the range of 1000 to 5000 nM.
